Target: T1, BCL6 (Homo sapiens, UniProt P41182)
T1 construct: HiBiT-tag knocked into endogenous BCL6 locus using CRISPR; endogenous in cells; host or cells: DHL-4_BCL6_HiBiT cells (CRISPR knock-in)
Assay: BCL6_HiBiT degradation assay (2 h)
Format: cell-based
Conditions: DHL-4_BCL6_HiBiT cells, read-out: YCon (% remaining maximal effect)
Description: A DHL-4 cell line with HiBiT-tag knocked into endogenous BCL6 locus using CRISPR was generated. The DHL-4_BCL6_HiBiT cells were dispensed into 384-well plates (Corning no. 3570) that were pre-spotted with compounds. Compounds were dispensed by an acoustic dispenser (ATS acoustic transfer system from EDC Biosystems) into a 384-well plate in a 10-point dose response curve using 3-fold dilutions starting at 1-10 μM and going down to […]. 25 μL of media (RPMI-1640+10% heat inactivated FBS+1×Pen/Strep) containing 2500 of DHL-4 was dispensed per well. Assay plates were incubated at 37° C. with 5% CO2 for 2 hours. After incubation, 25 μL of the Nano-Glo HiBiT lytic detection working solution (Promega, catalogue no. N3040, Madison, WI) was added to each well and incubated at room temperature for 15-30 min, protected from light. After 30 min, luminescence was read on an Envision or PHERAstar luminescence reader. To determine the EC50 value (the half-maximum effective concentration) and the level of the gradation (Yconstant) of a BCL6 degrader, luminescent signal normalized by DMSO control (Y) and compound concentration (x) was fitted using a four-parameter dose-response model (Y=(A+((B−A)/1+((C/x)^D) in Dotmatics. Fitted value C is the degradation EC50 and the minimum value A is the Y constant.
The degradation of BCL6 at 2 h in DHL-4 results are shown in Table 5, where EC50 is the half maximal effect and Ycon is the % remaining maximal effect.

Compound	Percent BCL6 remaining at maximal degradation (Ycon)
CN1C(=O)Cc2cc(Nc3nc(N4CC[C@H](Nc5ccc6c(C7CCC(=O)NC7=O)nn(C)c6c5)[C@H](CO)C4)ncc3Cl)ccc21 (stereo partly drawn) [Example 58, 3-(6-(((3R,4S)-1-(5-chloro-4-((1-methyl-2-oxoindolin-5-yl)amino)pyrimidin-2-yl)-3-(hydroxymethyl)piperidin-4-yl)amino)-1-methyl-1H-indazol-3-yl)piperidine-2,6-dione]	20 to 60%
C[C@@H]1CN(c2ncc(Cl)c(Nc3ccc4c(c3)CC(=O)N4C)n2)C[C@@H](C)N1c1ccc2c(C3CCC(=O)NC3=O)nn(C)c2c1 (stereo partly drawn) [Example 78, 3-(6-((2R,6R)-4-(5-chloro-4-((1-methyl-2-oxoindolin-5-yl)amino)pyrimidin-2-yl)-2,6-dimethylpiperazin-1-yl)-1-methyl-1H-indazol-3-yl)piperidine-2,6-dione]	20 to 60%
C[C@@H]1CN(c2ccc3c(C4CCC(=O)NC4=O)nn(C)c3c2)C[C@@H](C)N1c1ncc(Cl)c(Nc2ccc3c(c2)CC(=O)N3C)n1 (stereo partly drawn) [Example 28, 3-(6-((3R,5R)-4-(5-chloro-4-((1-methyl-2-oxoindolin-5-yl)amino)pyrimidin-2-yl)-3,5-dimethylpiperazin-1-yl)-1-methyl-1H-indazol-3-yl)piperidine-2,6-dione]	> 60%
CN1C(=O)Cc2cc(Nc3nc(N4CCCC(Nc5ccc6c(C7CCC(=O)NC7=O)nn(C)c6c5)CC4)ncc3Cl)ccc21 (stereo not shown) [Example 31, 3-(6-((1-(5-chloro-4-((1-methyl-2-oxoindolin-5-yl)amino)pyrimidin-2-yl)azepan-4-yl)amino)-1-methyl-1H-indazol-3-yl)piperidine-2,6-dione]	> 60%
CN1C(=O)Cc2cc(Nc3nc(N4CC[C@@H](Nc5ccc6c(C7CCC(=O)NC7=O)nn(C)c6c5)[C@H](F)C4)ncc3Cl)ccc21 (stereo partly drawn) [Example 45, 3-(6-(((3R,4R)-1-(5-chloro-4-((1-methyl-2-oxoindolin-5-yl)amino)pyrimidin-2-yl)-3-fluoropiperidin-4-yl)amino)-1-methyl-1H-indazol-3-yl)piperidine-2,6-dione]	20 to 60%
CN1C(=O)Cc2cc(Nc3nc(N(C)C4CCN(c5cc6c(cn5)c(C5CCC(=O)NC5=O)nn6C)CC4)ncc3Cl)ccc21 (stereo not shown) [Example 60, 3-(6-(4-((5-chloro-4-((1-methyl-2-oxoindolin-5-yl)amino)pyrimidin-2-yl)(methyl)amino)piperidin-1-yl)-1-methyl-1H-pyrazolo[4,3-c]pyridin-3-yl)piperidine-2,6-dione]	> 60%
C[C@@H]1CN(c2ncc(Cl)c(Nc3ccc4c(c3F)CC(=O)N4C)n2)CC[C@H]1Nc1ccc2c(C3CCC(=O)NC3=O)nn(C)c2c1 (stereo partly drawn) [Example 98, 3-(6-(((3R,4R)-1-(5-chloro-4-((4-fluoro-1-methyl-2-oxoindolin-5-yl)amino)pyrimidin-2-yl)-3-methylpiperidin-4-yl)amino)-1-methyl-1H-indazol-3-yl)piperidine-2,6-dione]	< 20%
CC1C(=O)N(c2ccc3c(C4CCC(=O)NC4=O)nn(C)c3c2)CCN1c1ncc(Cl)c(Nc2ccc3c(c2)CC(=O)N3C)n1 (stereo not shown) [Example 38, 3-(6-(4-(5-chloro-4-((1-methyl-2-oxoindolin-5-yl)amino)pyrimidin-2-yl)-3-methyl-2-oxopiperazin-1-yl)-1-methyl-1H-indazol-3-yl)piperidine-2,6-dione]	> 60%
CN1C(=O)Cc2cc(Nc3nc(N4CCC(Nc5ccc6c(C7CCC(=O)NC7=O)nn(C)c6c5)C(F)(F)C4)ncc3Cl)ccc21 (stereo not shown) [Example 64, 3-(6-((1-(5-Chloro-4-((1-methyl-2-oxoindolin-5-yl)amino)pyrimidin-2-yl)-3,3-difluoropiperidin-4-yl)amino)-1-methyl-1H-indazol-3-yl)piperidine-2,6-dione]	> 60%
C[C@@H]1CN(c2ncc(Cl)c(Nc3cc4c(cc3F)N(C)C(=O)C4)n2)CC[C@H]1Nc1ccc2c([C@@H]3CCC(=O)NC3=O)nn(C)c2c1 (single isomer, unassigned) [Example 94]	< 20%
COCCN1C(=O)Cc2cc(Nc3nc(N4CC[C@@H](Nc5ccc6c(C7CCC(=O)NC7=O)nn(C)c6c5)[C@H](C)C4)ncc3Cl)ccc21 (stereo partly drawn) [Example 75, 3-(6-(((3R,4R)-1-(5-chloro-4-((1-(2-methoxyethyl)-2-oxoindolin-5-yl)amino)pyrimidin-2-yl)-3-methylpiperidin-4-yl)amino)-1-methyl-1H-indazol-3-yl)piperidine-2,6-dione]	< 20%
CCN1C(=O)Cc2cc(Nc3nc(N4CCC(Nc5ccc6c([C@@H]7CCC(=O)NC7=O)nn(C)c6c5)CC4)ncc3Cl)ccc21 (single isomer, unassigned) [Example 91]	> 60%
C[C@@H]1CN(c2ncc(Cl)c(Nc3ccc4c(c3)CC(=O)N4C)n2)CC[C@@H]1Nc1ccc2c(C3CCC(=O)NC3=O)nn(C)c2c1 (stereo partly drawn) [Example 12, 3-(6-{[(3R,4S)-1-{5-chloro-4-[(1-methyl-2-oxo-2,3-dihydro-1H-indol-5-yl)amino]pyrimidin-2-yl}-3-methylpiperidin-4-yl]amino}-1-methyl-1H-indazol-3-yl)piperidine-2,6-dione]	< 20%
C[C@@H]1CN(c2ncc(Cl)c(Nc3ccc4c(c3)CC(=O)N4C)n2)C[C@@H](C)N1c1ccc2c([C@@H]3CCC(=O)NC3=O)nn(C)c2c1 (single isomer, unassigned) [Example 80]	> 60%
COCCN1C(=O)Cc2cc(Nc3nc(N4CC[C@@H](Nc5ccc6c([C@H]7CCC(=O)NC7=O)nn(C)c6c5)[C@H](C)C4)ncc3Cl)ccc21 (single isomer, unassigned) [Example 76]	< 20%

Now from value to molecule:

Percent BCL6 remaining at maximal degradation (Ycon)	Compound
< 20%	C[C@@H]1CN(c2ncc(Cl)c(Nc3ccc4c(c3)N(CCC(C)(C)O)C(=O)C4)n2)CC[C@H]1Nc1ccc2c(C3CCC(=O)NC3=O)nn(C)c2c1 (stereo partly drawn) [Example 120, 3-(6-(((3R,4R)-1-(5-chloro-4-((1-(3-hydroxy-3-methylbutyl)-2-oxoindolin-6-yl)amino)pyrimidin-2-yl)-3-methylpiperidin-4-yl)amino)-1-methyl-1H-indazol-3-yl)piperidine-2,6-dione]
< 20%	C[C@@H]1CN(c2ncc(C#N)c(Nc3cc4c(cc3F)N(C)C(=O)C4)n2)CC[C@H]1Nc1ccc2c(C3CCC(=O)NC3=O)nn(C)c2c1 (stereo partly drawn) [Example 117, 2-((3R,4R)-4-((3-(2,6-dioxopiperidin-3-yl)-1-methyl-1H-indazol-6-yl)amino)-3-methylpiperidin-1-yl)-4-((6-fluoro-1-methyl-2-oxoindolin-5-yl)amino)pyrimidine-5-carbonitrile]
> 60%	CN1C(=O)Cc2cc(Nc3nc(N4CCC(c5ccc6c(C7CCC(=O)NC7=O)nn(C)c6c5)CC4)ncc3Cl)ccc21 (stereo not shown) [Example 125, 3-(6-(1-(5-Chloro-4-((1-methyl-2-oxoindolin-5-yl)amino)pyrimidin-2-yl)piperidin-4-yl)-1-methyl-1H-indazol-3-yl)piperidine-2,6-dione]
< 20%	C[C@@H]1CN(c2ncc(Cl)c(Nc3ccc4c(c3)CC(=O)N4CCC(C)(C)F)n2)CC[C@H]1Nc1ccc2c(C3CCC(=O)NC3=O)nn(C)c2c1 (stereo partly drawn) [Example 107, 3-(6-(((3R,4R)-1-(5-chloro-4-((1-(3-fluoro-3-methylbutyl)-2-oxoindolin-5-yl)amino)pyrimidin-2-yl)-3-methylpiperidin-4-yl)amino)-1-methyl-1H-indazol-3-yl)piperidine-2,6-dione]
< 20%	C[C@@H]1CN(c2nc(F)c(Cl)c(Nc3ccc4c(c3)CC(=O)N4C)n2)CC[C@H]1Nc1ccc2c(C3CCC(=O)NC3=O)nn(C)c2c1 (stereo partly drawn) [Example 123, 3-(6-(((3R,4R)-1-(5-chloro-4-fluoro-6-((1-methyl-2-oxoindolin-5-yl)amino)pyrimidin-2-yl)-3-methylpiperidin-4-yl)amino)-1-methyl-1H-indazol-3-yl)piperidine-2,6-dione]
> 60%	CN1C(=O)Cc2cc(Nc3nc(N4CCC(Nc5ccc6c(N7CCC(=O)NC7=O)nn(C)c6c5)CC4)ncc3C#N)ccc21 [Example 138, 2-(4-((3-(2,4-dioxotetrahydropyrimidin-1(2H)-yl)-1-methyl-1H-indazol-6-yl)amino)piperidin-1-yl)-4-((1-methyl-2-oxoindolin-5-yl)amino)pyrimidine-5-carbonitrile]
20 to 60%	Cn1nc(N2CCC(=O)NC2=O)c2ccc(NC3CCN(c4ncc(Cl)c(Nc5ccc6c(c5)CC(=O)N6CCO)n4)CC3)cc21 [Example 137, 1-(6-((1-(5-chloro-4-((1-(2-hydroxyethyl)-2-oxoindolin-5-yl)amino)pyrimidin-2-yl)piperidin-4-yl)amino)-1-methyl-1H-indazol-3-yl)dihydropyrimidine-2,4(1H,3H)-dione]

— patent publication US12404239B2, “Modulators of BCL6 as ligand directed degraders” (Celgene Corporation, priority 2022, dated 2025)
